# Reference: publication PMC7736581, “Activation of the IRE1 RNase through remodeling of the kinase front pocket by ATP-competitive ligands” (Nature Communications, 2020)
# Assays:
# Assay in all cases: biochemical
# Design in all cases: Invitrogen kinase panel: Z'Lyte activity (ATP at Km) or LanthaScreen competitive ATP-site binding, percent inhibition
# ERK2 = biological target: T1, ERK2 (Homo sapiens, UniProt P28482)
# T1 construct: gene MAPK1
# Met = Met (Homo sapiens, UniProt P08581)
# KDR = KDR (Homo sapiens, UniProt P35968)
# Sequence of KDR (P35968 whole entry): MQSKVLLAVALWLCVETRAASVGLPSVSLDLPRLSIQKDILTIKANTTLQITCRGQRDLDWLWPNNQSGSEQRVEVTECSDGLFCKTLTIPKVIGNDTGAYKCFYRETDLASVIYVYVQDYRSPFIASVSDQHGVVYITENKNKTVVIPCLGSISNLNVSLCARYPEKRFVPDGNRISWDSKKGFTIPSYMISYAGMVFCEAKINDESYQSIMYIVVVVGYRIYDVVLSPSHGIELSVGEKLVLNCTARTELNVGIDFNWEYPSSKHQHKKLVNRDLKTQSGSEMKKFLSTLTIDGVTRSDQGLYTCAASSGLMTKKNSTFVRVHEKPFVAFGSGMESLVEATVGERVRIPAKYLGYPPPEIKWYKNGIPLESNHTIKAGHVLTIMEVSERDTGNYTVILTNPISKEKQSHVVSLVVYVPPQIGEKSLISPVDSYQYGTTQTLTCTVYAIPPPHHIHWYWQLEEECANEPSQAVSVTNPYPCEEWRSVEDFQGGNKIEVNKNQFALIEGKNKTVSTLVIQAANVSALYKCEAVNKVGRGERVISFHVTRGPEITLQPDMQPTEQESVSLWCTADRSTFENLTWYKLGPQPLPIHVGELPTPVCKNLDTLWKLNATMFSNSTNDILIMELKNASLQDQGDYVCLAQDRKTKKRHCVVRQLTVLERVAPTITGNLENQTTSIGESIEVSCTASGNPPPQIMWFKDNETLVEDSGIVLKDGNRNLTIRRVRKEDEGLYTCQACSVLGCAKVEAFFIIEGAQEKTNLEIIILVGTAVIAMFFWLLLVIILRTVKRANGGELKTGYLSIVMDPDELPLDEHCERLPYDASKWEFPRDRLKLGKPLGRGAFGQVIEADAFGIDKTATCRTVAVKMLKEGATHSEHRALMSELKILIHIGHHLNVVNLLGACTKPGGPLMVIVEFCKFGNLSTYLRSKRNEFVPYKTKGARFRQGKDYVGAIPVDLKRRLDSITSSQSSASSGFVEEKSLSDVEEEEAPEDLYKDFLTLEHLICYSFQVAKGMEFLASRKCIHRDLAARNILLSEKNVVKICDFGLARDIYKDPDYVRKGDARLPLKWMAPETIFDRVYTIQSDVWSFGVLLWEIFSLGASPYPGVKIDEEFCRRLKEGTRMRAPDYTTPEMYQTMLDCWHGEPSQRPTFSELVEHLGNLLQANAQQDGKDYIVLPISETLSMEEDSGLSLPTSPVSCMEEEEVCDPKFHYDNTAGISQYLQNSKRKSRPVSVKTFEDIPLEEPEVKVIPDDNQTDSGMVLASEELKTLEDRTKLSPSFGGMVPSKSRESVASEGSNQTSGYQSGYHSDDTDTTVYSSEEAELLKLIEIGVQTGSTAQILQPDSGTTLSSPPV
# CDK2/cyclinA = CDK2/cyclinA (Homo sapiens, UniProt P24941)
# Aurora_A = biological target: T2, Aurora_A (Homo sapiens, UniProt O14965)
# T2 construct: gene AURKA
# T2 sequence (O14965 1-403): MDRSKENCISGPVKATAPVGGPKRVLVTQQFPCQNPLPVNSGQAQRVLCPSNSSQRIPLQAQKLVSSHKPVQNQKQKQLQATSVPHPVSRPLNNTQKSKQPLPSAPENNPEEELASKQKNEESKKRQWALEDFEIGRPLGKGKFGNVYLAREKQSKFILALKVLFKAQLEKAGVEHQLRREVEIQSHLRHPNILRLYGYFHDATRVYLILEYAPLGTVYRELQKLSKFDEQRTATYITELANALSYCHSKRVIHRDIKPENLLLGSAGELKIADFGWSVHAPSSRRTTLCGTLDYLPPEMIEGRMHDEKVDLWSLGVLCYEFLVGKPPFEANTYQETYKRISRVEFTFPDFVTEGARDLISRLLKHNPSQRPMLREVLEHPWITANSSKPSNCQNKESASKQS
# TAK1-TAB1 = biological target: T3, TAK1-TAB1 (Homo sapiens, UniProt O43318)
# T3 construct: gene MAP3K7
# T3 sequence (O43318 1-606): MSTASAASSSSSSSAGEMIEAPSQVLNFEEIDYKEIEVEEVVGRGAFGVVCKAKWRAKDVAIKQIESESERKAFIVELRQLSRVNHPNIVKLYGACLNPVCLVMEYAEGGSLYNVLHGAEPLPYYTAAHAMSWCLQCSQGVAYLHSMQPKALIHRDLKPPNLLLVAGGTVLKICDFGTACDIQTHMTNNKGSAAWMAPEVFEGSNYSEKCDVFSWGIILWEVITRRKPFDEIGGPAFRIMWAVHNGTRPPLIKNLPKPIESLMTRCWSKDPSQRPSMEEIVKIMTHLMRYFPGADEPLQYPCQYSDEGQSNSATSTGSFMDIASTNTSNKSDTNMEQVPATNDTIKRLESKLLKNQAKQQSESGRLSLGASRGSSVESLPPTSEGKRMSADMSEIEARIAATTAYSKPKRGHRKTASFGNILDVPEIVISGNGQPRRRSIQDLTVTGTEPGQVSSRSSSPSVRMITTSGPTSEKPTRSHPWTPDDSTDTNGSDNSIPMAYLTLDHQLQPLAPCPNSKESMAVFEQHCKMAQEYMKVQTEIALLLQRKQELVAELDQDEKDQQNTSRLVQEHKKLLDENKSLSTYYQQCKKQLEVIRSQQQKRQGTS
# T3 sequence (Q15750 1-504 partner): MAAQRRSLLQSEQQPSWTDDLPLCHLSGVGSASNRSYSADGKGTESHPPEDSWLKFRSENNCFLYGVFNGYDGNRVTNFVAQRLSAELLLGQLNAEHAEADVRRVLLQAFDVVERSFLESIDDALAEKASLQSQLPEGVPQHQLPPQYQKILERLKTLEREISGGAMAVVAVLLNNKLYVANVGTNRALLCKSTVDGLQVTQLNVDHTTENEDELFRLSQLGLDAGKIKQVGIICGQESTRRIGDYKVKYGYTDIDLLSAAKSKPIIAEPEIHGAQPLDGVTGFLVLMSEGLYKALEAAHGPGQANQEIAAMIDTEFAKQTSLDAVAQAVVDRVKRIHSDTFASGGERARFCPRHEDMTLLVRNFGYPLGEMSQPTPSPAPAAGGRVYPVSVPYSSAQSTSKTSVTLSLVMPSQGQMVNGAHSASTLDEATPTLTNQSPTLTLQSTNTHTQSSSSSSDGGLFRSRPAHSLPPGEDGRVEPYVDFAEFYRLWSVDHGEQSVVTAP
# Src = Src (Homo sapiens, UniProt P12931)
# Sequence of Src (P12931 whole entry): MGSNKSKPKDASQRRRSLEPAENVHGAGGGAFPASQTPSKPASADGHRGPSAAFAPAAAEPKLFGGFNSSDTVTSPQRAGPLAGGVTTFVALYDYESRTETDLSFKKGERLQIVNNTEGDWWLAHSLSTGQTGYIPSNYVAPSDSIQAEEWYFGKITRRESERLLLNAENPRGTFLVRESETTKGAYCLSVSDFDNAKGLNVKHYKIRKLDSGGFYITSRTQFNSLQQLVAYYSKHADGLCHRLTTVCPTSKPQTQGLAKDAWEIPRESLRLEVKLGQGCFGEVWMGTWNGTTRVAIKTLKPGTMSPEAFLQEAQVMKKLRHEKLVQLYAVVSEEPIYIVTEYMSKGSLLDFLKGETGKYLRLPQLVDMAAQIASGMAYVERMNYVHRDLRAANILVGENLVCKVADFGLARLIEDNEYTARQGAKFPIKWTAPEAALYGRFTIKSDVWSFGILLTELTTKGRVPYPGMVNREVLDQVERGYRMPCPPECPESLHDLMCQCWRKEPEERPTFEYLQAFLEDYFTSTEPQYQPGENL
# Sequence of Met (P08581 whole entry): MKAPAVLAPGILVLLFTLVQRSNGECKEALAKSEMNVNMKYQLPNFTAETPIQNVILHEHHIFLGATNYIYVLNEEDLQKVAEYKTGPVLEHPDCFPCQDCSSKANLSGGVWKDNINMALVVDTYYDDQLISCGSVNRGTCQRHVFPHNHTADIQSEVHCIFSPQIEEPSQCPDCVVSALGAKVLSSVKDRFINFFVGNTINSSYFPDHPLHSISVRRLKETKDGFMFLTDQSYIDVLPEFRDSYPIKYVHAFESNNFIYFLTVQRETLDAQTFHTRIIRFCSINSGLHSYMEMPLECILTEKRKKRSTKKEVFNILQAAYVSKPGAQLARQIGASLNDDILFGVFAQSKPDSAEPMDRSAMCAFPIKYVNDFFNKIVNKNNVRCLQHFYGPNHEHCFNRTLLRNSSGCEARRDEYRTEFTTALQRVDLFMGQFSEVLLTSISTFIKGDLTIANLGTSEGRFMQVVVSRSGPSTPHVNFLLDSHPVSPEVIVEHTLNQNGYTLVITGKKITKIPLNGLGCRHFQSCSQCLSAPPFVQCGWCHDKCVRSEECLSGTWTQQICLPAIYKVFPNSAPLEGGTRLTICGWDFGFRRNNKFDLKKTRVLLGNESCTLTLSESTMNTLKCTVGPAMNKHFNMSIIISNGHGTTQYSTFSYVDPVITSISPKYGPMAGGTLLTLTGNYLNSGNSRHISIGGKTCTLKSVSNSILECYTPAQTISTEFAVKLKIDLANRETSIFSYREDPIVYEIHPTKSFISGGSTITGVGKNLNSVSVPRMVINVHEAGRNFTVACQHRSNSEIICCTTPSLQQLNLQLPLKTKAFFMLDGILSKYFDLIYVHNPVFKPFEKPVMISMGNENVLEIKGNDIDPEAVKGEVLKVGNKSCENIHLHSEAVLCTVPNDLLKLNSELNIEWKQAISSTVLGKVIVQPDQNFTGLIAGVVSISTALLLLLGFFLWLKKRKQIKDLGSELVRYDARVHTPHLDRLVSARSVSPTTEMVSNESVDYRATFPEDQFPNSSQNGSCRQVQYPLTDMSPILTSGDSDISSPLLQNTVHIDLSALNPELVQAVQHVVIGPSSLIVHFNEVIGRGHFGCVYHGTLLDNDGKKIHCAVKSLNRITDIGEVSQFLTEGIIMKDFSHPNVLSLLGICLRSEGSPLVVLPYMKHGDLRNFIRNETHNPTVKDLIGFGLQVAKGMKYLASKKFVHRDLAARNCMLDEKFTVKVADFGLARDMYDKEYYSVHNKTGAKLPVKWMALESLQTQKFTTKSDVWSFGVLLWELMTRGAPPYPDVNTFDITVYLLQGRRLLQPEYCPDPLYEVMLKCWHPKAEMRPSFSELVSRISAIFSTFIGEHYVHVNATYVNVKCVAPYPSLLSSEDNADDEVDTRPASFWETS
# T1 sequence (P28482 whole entry): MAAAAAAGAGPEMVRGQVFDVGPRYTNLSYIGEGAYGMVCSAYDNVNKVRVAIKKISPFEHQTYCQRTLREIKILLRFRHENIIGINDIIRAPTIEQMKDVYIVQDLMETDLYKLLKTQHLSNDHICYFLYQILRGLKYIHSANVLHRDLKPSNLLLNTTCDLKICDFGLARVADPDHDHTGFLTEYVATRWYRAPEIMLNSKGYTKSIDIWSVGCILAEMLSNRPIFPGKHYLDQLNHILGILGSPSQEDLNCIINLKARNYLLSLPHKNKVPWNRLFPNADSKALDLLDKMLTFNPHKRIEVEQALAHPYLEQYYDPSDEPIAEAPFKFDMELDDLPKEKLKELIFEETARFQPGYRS
inhibition at 1 µM (ERK2),inhibition at 1 µM (Met),inhibition at 1 µM (KDR),inhibition at 1 µM (CDK2/cyclinA),inhibition at 1 µM (Aurora_A),inhibition at 1 µM (TAK1-TAB1),inhibition at 1 µM (Src),Compound
2%,5%,-4%,6%,-7%,-2.5%,22.5%,CC#CC(=O)Nc1cccc2c(Oc3ncccc3-c3ccnc(N[C@H]4CCCNC4)n3)c(C)ccc12 [G-7658]
78.3%,88.8%,96.3%,100%,92%,94.3%,52.5%,O=c1cc(-c2n[nH]c3ncc(-c4c(F)cccc4F)cc23)nc(N2CCC(O)CC2)[nH]1 [G-9807]

Compound,inhibition at 1 µM (ERK2),inhibition at 1 µM (Met),inhibition at 1 µM (KDR),inhibition at 1 µM (CDK2/cyclinA),inhibition at 1 µM (Aurora_A),inhibition at 1 µM (TAK1-TAB1),inhibition at 1 µM (Src)
CCOC(=O)Nc1cccc2c(Oc3ncccc3-c3ccnc(N[C@H]4CCCNC4)n3)c(C)ccc12 [G-1749],6%,4%,-18%,6.5%,-9.5%,23%,28%
